What all share (assay): cell-based
Experiment [1] concerns the target T1, B1 receptor (Oryctolagus cuniculus, UniProt P48748).
T1 sequence (P48748 1-352): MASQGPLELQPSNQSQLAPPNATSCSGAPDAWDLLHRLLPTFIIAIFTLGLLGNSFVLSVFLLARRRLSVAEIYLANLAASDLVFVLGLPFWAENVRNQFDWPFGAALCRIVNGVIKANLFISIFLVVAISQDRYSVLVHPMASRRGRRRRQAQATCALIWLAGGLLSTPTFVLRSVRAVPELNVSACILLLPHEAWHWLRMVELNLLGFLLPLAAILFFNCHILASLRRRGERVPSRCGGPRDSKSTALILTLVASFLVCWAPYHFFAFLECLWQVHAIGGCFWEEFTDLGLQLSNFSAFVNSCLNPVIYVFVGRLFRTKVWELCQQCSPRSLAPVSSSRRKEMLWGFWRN
The settings on record: for Kb: Rb.A. pA2, apparent affinity as antagonist vs desArg9BK, antagonist applied 10 min before, Inactive = no detectable antagonistic effect at ≦ 10 μg/ml. The gist of the method: (§1)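 Isolated rabbit jugular vein (captopril 1 μmol/L), guinea pig ileum, endothelium-free rabbit aorta and human umbilical vein, in Krebs at 37 °C, with isometric tension recorded. Agonism was tested at 10 μg/mL.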

Experiment [2] concerns the target T2, B2 receptor (Oryctolagus cuniculus, UniProt Q28642).
T2 sequence (Q28642 1-367): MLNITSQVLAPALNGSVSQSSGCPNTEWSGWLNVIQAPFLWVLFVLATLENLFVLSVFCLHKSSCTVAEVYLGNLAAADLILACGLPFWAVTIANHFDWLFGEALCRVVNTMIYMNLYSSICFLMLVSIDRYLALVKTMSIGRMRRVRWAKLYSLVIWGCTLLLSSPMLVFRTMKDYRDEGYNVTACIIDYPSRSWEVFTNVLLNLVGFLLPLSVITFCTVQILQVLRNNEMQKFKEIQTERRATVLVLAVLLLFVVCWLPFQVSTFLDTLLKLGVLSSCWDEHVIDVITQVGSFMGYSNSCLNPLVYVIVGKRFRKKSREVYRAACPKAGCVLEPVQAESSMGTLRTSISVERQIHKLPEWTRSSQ
The essentials:
as §1

Experiment [3] concerns the target T3, B2 receptor (Cavia porcellus, UniProt O70526).
T3 sequence (O70526 1-372): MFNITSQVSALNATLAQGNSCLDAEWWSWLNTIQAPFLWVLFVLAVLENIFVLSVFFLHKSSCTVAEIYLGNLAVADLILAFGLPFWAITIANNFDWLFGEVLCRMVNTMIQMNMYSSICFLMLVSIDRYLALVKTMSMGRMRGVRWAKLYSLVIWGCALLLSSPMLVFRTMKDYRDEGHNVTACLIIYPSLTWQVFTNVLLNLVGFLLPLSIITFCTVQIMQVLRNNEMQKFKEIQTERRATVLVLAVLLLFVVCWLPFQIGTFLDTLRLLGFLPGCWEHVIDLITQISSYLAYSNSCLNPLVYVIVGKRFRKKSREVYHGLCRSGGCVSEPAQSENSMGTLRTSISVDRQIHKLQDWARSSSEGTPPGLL
To be noted: for G.P.I. pA2: vs BK, Inactive = no detectable antagonistic effect at ≦ 10 μg/ml, F.ag. full agonist, P.ag. partial agonist. The gist of the method:
as §1

Setting [4] is: residual agonistic activity at 10 μg/mL in comparison with BK.

Non-standard residues stand in square brackets, D forms with d. Residues, ends and D or L forms follow the SMILES beside them. Tyr(3,5-I2) = N[C@@H](Cc1cc(I)c(O)c(I)c1)C(=O)O; Oic = O=C(O)[C@@H]1C[C@@H]2CCCC[C@@H]2N1; d2Nal = N[C@H](Cc1ccc2ccccc2c1)C(=O)O; Hyp = O=C(O)[C@@H]1C[C@@H](O)CN1; dTic = O=C(O)[C@H]1Cc2ccccc2CN1; 2Thi = N[C@@H](Cc1cccs1)C(=O)O; Ahx = NCCCCCC(=O)O; Sar = CNCC(=O)O A value given as a limit tells only on which side of the number the result lay.

`CC(=O)N[C@@H](Cc1ccc(O)cc1)C(=O)NCCCCCC(=O)N[C@@H](CCCCN)C(=O)N[C@@H](CCCNC(=N)N)C(=O)N1CCC[C@H]1C(=O)N1CCC[C@H]1C(=O)NCC(=O)N[C@@H](Cc1ccccc1)C(=O)N[C@@H](CO)C(=O)N1CCC[C@H]1C(=O)N[C@@H](CC(C)C)C(=O)O` [Compound 27, AcTyrεAhxLys(Leu^8)desArg^9BK]: in experiment [1], the Kb was 7.94 nM. For the same molecule, the “Rb.A. α^E” value in experiment [1] (residual agonistic activity at 10 μg/mL in comparison with desArg9BK) was determined as 0. Moreover, the “Rb.J.V. α^E” value in experiment [2] (setting [4]) is 0.03. In experiment [3] (setting [4]), the “G.P.I. α^E” value stood at 0.30. Also, the “G.P.I. pA2” value in experiment [3] is “P.ag”.

For `CC[C@H](C)[C@H](NC(=O)[C@@H](Cc1ccc2ccccc2c1)NC(=O)[C@H](CO)NC(=O)[C@H](Cc1ccccc1)NC(=O)CNC(=O)[C@@H]1CCCN1C(=O)[C@@H]1CCCN1C(=O)[C@H](CCCNC(=N)N)NC(=O)[C@H](CCCCN)NC(=O)CCCCCNC(=O)[C@H](Cc1ccc(O)cc1)NC(=O)CNC)C(=O)O` [Compound 29, SarTyrεAhxLys(D-βNal^7, Ile^8)desArg^9BK] (H-[Sar]Y[Ahx]KRPPGFS[d2Nal]I-OH; N-terminus and C-terminus assumed), the Kb is 3.31 nM in experiment [1] and 6310 nM in experiment [2]. In experiment [3], the “G.P.I. pA2” value is reported as “Inactive”.

With `CC[C@H](C)[C@H](NC(=O)[C@@H](Cc1ccc2ccccc2c1)NC(=O)[C@H](CO)NC(=O)[C@H](Cc1ccccc1)NC(=O)CNC(=O)[C@@H]1CCCN1C(=O)[C@@H]1CCCN1C(=O)[C@H](CCCNC(=N)N)NC(=O)[C@H](CCCCN)NC(=O)CCCCCNC(=O)[C@H](Cc1cc(I)c(O)c(I)c1)NC(=O)CNC)C(=O)O` [Compound 30, SarTyr(3,5-I)εAhxLys(D-βNal^7, Ile^8)desArg^9BK] (H-[Sar][Tyr(3,5-I2)][Ahx]KRPPGFS[d2Nal]I-OH; N-terminus and C-terminus assumed), the Kb in experiment [1] was 7.24 nM; in experiment [2] it was 7410 nM. Further, in experiment [3], the “G.P.I. pA2” value is recorded as “Inactive”.

As to `N=C(N)NCCC[C@@H](N)C(=O)N[C@@H](CCCNC(=N)N)C(=O)N1CCC[C@H]1C(=O)N1C[C@H](O)C[C@H]1C(=O)NCC(=O)N[C@@H](Cc1cccs1)C(=O)N[C@@H](CO)C(=O)N1Cc2ccccc2C[C@@H]1C(=O)N1[C@H](C(=O)O)C[C@@H]2CCCC[C@@H]21` [Compound 31, D-Arg(Hyp^3, Thi^5, D-Tic^7, Oic^8)desArg^9BK, reference compound] (H-[dR]RP[Hyp]G[2Thi]S[dTic][Oic]-OH; N-terminus and C-terminus assumed), the Kb was 158 nM in experiment [1], 41.7 nM in experiment [2] and > 7590 nM in experiment [3].

These data come from patent publication US7041785B1, “B1-bradykinin receptor antagonists and use thereof” (Université de Sherbrooke, priority 1996, dated 2006).
